As a reminder, the Ki is the dissociation constant of the complex between target and ligand, obtained from inhibition or displacement.

The target of assay [1] is T1, human somatostatin receptor subtype sst1 (Homo sapiens, UniProt P30872).
T1 construct: expressed in transfected cells; host or cells: CHO cells (membranes)
Kind of assay: Competition binding with 125I-LTT-SRIF-28, CHO cell membranes, sst1. The following applies: bound only; read-out: Ki values for the sst1. As to the method:
(§1) The affinity of the compounds of the invention for the five human somatostatin receptor subtypes (sst1, sst2, sst3, sst4, and sst5) was determined in competition binding assays with (^125I-Tyr)-[Leu^8, DTrp^22]-Somatostatin-28 (^125I-LTT-SRIF-28). The biological material for these experiments consisted of membranes from Chinese hamster ovary (CHO) cells stably transfected with one of the five human somatostatin receptor subtypes. Membranes (3-20 μg of total protein per sample) and trace amount of ^125I-LTT-SRIF-28 were incubated in 10 mM Hepes, 1 mM EDTA, 5 mM MgCl2, 5 mg/ml of BSA and 30 μg/ml bacitracin, pH 7.6, with six concentrations of the compounds. Each concentration was run in duplicate. Nonspecific binding was defined by 1 μM somatostatin-14 (SRIF-14) and corresponded to 5-25% of total binding. After 60 min at room temperature, incubations were terminated by rapid vacuum filtration through GF/B glass fiber filter mats (presoaked at 4° C. in 200 ml of 10 mM Hepes, 1 mM EDTA, 5 mM MgCl2, pH 7.6) and three 5 ml washes with ice-cold wash buffer (20 mM TRIS, 1 mM EDTA, 5 mM MgCl2, pH 7.4). The filters were then dried, impregnated with scintillate and their radioactivity was measured by scintillation counting. The analysis of the experiments was carried out by nonlinear least square curve fitting. Affinity constants (Ki) were calculated from the IC50 values according to the Cheng-Prusoff's equation (Cheng and Prusoff, 1973). Experiments were repeated a minimum of three times.

Assay [2] addresses T2, human somatostatin receptor subtype sst4 (Homo sapiens, UniProt P31391).
T2 construct: expressed in transfected cells; host or cells: CHO cells (membranes)
As to the kind of experiment: Competition binding with 125I-LTT-SRIF-28, CHO cell membranes, sst4. To be noted: bound only; read-out: Ki values for the sst4. As to the method:
as §1

Each structure is given as a SMILES string. Structures can show the parent of a compound that is named as a salt.

T2 sequence (P31391 whole entry): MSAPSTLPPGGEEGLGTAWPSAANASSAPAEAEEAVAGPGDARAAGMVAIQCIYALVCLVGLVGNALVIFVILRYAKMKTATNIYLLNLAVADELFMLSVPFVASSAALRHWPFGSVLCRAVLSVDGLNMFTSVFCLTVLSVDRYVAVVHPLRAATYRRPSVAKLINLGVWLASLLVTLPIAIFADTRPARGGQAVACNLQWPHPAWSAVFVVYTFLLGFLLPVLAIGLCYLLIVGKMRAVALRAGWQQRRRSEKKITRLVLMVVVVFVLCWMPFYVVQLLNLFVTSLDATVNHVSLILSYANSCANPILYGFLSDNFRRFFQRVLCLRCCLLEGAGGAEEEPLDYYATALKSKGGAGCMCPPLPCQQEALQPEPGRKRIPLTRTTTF
T1 sequence (P30872 whole entry): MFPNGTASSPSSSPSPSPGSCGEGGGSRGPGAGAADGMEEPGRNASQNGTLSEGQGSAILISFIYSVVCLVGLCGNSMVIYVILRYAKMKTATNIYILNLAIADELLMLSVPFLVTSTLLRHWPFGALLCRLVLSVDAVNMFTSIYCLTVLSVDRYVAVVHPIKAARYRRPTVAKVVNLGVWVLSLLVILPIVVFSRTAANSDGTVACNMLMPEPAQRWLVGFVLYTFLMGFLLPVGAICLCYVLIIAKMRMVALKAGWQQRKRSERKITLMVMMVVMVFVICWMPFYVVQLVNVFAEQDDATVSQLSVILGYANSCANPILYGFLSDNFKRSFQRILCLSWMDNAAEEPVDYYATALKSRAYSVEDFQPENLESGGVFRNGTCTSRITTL

For `Cc1ccc(S(=O)(=O)N[C@@H](C(=O)NCCNC(C)C)[C@H](C)OCc2ccccc2)c2ccccc12` [compound 71, (R)-4-methylnaphthalene-1-sulfonic acid [2-benzyloxy-2-(S)methyl-1-(2-isopropylaminoethylcarbamoyl)-ethyl]amide], in assay [1], the Ki is below 300 nM.
Consider `Cc1ccc(S(=O)(=O)N[C@H](CSCc2ccccc2)C(=O)NCCN)c2ccccc12` [compound 31, (S)-4-methylnaphthalene-1-sulfonic acid [1-(2-aminoethylcarbamoyl)-2-benzylsulfanylethyl]amide], for which the Ki in assay [2] is below 300 nM.
As to `Cc1ccc(S(=O)(=O)N[C@@H](CCCNC(C)C)CNC2CCCc3ccccc32)c2ccccc12` (stereo partly drawn) [compound 17, (S)-4-methylnaphthalene-1-sulfonic acid {4-isopropylamino-1-[(1,2,3,4-tetrahydronaphthalen-1-ylamino)methyl]butyl}amide], in assay [1], the Ki was below 300 nM.
In the case of `NCCC[C@@H](COCc1ccccc1)NS(=O)(=O)c1cccc2ccccc12` [compound 83, (S)-naphthalene-1-sulfonic acid (4-amino-1-benzyloxymethylbutyl)amide], in assay [2], the Ki was below 300 nM.
On the same count and under the same terms, as for `Cc1ccc(S(=O)(=O)N[C@@H](CCCN)COc2ccsc2)c2ccccc12` [compound 87, (S)-4-methylnaphthalene-1-sulfonic acid [4-amino-1-(thiophen-3-yloxymethyl)-butyl]-amide], the figure is below 300 nM; as for `Cc1ccc(S(=O)(=O)N[C@@H](CCCN)COCc2ccc(F)cc2)c2ccccc12` [compound 101, (S)-4-methylnaphthalene-1-sulfonic acid [4-amino-1-(4-fluorobenzyloxymethyl)butyl]amide], below 300 nM.
The same measure, in the same setting: to `Cc1ccc(S(=O)(=O)N[C@@H](CCCN)CNCc2ccccc2)c2ccccc12` [compound 35, (S)-4-methylnaphthalene-1-sulfonic acid [4-amino-1-(benzylaminomethyl)butyl]amide] belongs below 300 nM; to `Cc1ccc(S(=O)(=O)N[C@@H](CCCN)COC(C)c2ccccc2)c2ccccc12` (stereo partly drawn) [compound 88, (S)-4-methyl-naphthalene-1-sulfonic acid [4-amino-1-(1-phenyl-ethoxy methyl)-butyl]-amide formic acid salt], below 300 nM.
With `NCCC[C@@H](COCc1ccccc1)NS(=O)(=O)c1ccc(F)c2ccccc12` [compound 78, (S)-4-fluoronaphthalene-1-sulfonic acid (4-amino-1-benzyloxymethylbutyl)amide], the Ki in assay [2] was below 300 nM.
The same measure, in the same setting: as for `Cc1ccc(S(=O)(=O)NC(CNCc2ccccc2)C2CCNCC2)c2ccccc12` (stereo not drawn) [compound 34, 4-methylnaphthalene-1-sulfonic acid (2-benzylamino-1-piperidin-4-ylethyl)amide], the figure is below 300 nM; as for `Cc1ccc(S(=O)(=O)N[C@H](CNc2ccccc2)Cc2c[nH]cn2)c2ccccc12` [compound 94, (S)-4-methylnaphthalene-1-sulfonic acid [2-(1H-imidazol-4-yl)-1-phenylaminomethylethyl]amide], below 300 nM; as for `Cc1ccc(S(=O)(=O)N[C@H](COc2ccccc2)Cc2c[nH]cn2)c2ccccc12` [compound 84, (S)-4-methylnaphthalene-1-sulfonic acid [2-(1H-imidazol-4-yl)-1-phenoxymethylethyl]amide], below 300 nM.
Regarding `Cc1ccc(S(=O)(=O)N[C@@H](CCN)COCc2ccccc2)c2ccccc12` [compound 3, (S)-4-methylnaphthalene-1-sulfonic acid (3-amino-1-benzyl-oxymethylpropyl)amide], the Ki in assay [2] was below 300 nM.
As for `Cc1ccc(S(=O)(=O)N[C@@H](C(=O)NCCN)[C@H](C)OCc2ccccc2)c2ccccc12` [compound 70, (R)-4-methylnaphthalene-1-sulfonic acid [2-benzyloxy-2-(S)methyl-1-(aminoethylcarbamoyl)-ethyl]amide], the inhibitory constant (Ki) in assay [2] is below 300 nM.
`Cc1ccc(S(=O)(=O)NC(CCCN)CNC2CCCCC2)c2ccccc12` (stereo not drawn) [compound 77, 4-methylnaphthalene-1-sulfonic acid (4-amino-1-cyclohexylaminomethyl-butyl)-amide formic acid salt]: in assay [2], the inhibition constant (Ki) is below 300 nM.
Regarding `Cc1ccc(S(=O)(=O)N[C@@H](CCCN)COCC(C)C)c2ccccc12` [compound 80, (S)-4-methylnaphthalene-1-sulfonic acid (4-amino-1-isobutoxymethylbutyl)amide], the Ki in assay [2] was below 300 nM.
Turning to `Cc1ccc(S(=O)(=O)N[C@@H](CCCN)CSCc2ccccc2)c2ccccc12` [compound 1, (S)-4-methylnaphthalene-1-sulfonic acid (4-amino-1-benzylsulfanylmethylbutyl)amide], the Ki in assay [2] is below 300 nM.
Turning to `Cc1ccc(S(=O)(=O)N[C@@H](CCCNC(C)C)COc2ccc3cnccc3c2)c2ccccc12` [compound 105, (S)-4-methylnaphthalene-1-sulfonic acid [4-isopropylamino-1-(isoquinolin-6-yloxymethyl)butyl]amide], in assay [1], the inhibition constant (Ki) was below 300 nM.
As to `Cc1ccc(S(=O)(=O)N[C@@H](CCCN)CN(C)Cc2ccccc2)c2ccccc12` [compound 85, (S)-4-methylnaphthalene-1-sulfonic acid {4-amino-1-[(benzylmethylamino)methyl]butyl}amide], in assay [2], the Ki is below 300 nM.
For `Cc1ccc(S(=O)(=O)N[C@H](CNCc2ccccc2)Cc2c[nH]cn2)c2ccccc12` [compound 93, (S)-4-methylnaphthalene-1-sulfonic acid [1-(benzylaminomethyl)-2-(1H-imidazol-4-yl)ethyl]amide], the inhibition constant (Ki) in assay [2] was below 300 nM.
Take `Cc1ccc(S(=O)(=O)N[C@@H](CCCNC(C)C)CSCc2ccccc2)c2ccccc12` [compound 61, (S)-4-methylnaphthalene-1-sulfonic acid (1-benzylsulfanylmethyl-4-isopropylaminobutyl)amide]: in assay [1], the Ki is below 300 nM.
On to `Cc1ccc(S(=O)(=O)N[C@@H](CCCN)CSc2ccccc2)c2ccccc12` [compound 67, (S)-4-methylnaphthalene-1-sulfonic acid (4-amino-1-phenylsulfanylmethylbutyl)amide], for which the inhibition constant (Ki) in assay [2] was below 300 nM.
Same read-out and setting: as for `Cc1ccc(COC[C@H](CCCN)NS(=O)(=O)c2ccc(C)c3ccccc23)cc1` [compound 12, (S)-4-methylnaphthalene-1-sulfonic acid [4-amino-1-(4-methylbenzyloxymethyl)butyl]amide], the figure is below 300 nM; as for `CCOC[C@H](CCCN)NS(=O)(=O)c1ccc(C)c2ccccc12` [compound 76, (S)-4-methylnaphthalene-1-sulfonic acid (4-amino-1-ethoxymethylbutyl)amide], below 300 nM.
On the same count and under the same terms, as for `Cc1ccc(S(=O)(=O)N[C@@H](CCN)COc2ccccc2)c2ccccc12` [compound 100, (S)-4-Methylnaphthalene-1-sulfonic acid (3-amino-1-phenoxymethylpropyl)amide], the figure is below 300 nM.
On the same count and under the same terms, to `Cc1ccc(S(=O)(=O)N[C@H](COCc2ccccc2)C(=O)NCCN)c2ccccc12` [compound 24, (R)-4-methylnaphthalene-1-sulfonic acid [1-(2-aminoethylcarbamoyl)-2-benzyloxyethyl]amide] belongs below 300 nM; to `Cc1ccc(S(=O)(=O)N[C@@H](CCCN)COCc2c(F)c(F)c(F)c(F)c2F)c2ccccc12` [compound 102, (S)-4-methylnaphthalene-1-sulfonic acid (4-amino-1-pentafluorophenylmethoxymethylbutyl)amide], below 300 nM.

Values taken from patent US20100048549A1, “Peptidomimetics selective for the somatostatin receptor subtypes 1 and/or 4” (priority 2005, published 2010).
